Experimental data published in patent US11649220B2 (DEMOTECH.INC., priority 2018, dated 2023).

Columns and labels:
[1] = test system: Malondialdehyde (MDA) in serum; assay: In vivo anti-lipid oxidation experiment (serum MDA, TBA method); set-up: inhibition rate %: concentration or dose not given beside the values; conditions: MAD lipid peroxidation in vivo; for inhibition rate %: relative to solvent DMSO and Chow averages; for avarage value of OD: serum, TBA method, 532 nm
Excerpt: Experimental principle: Malondialdehyde (MDA) in liposome degradation products could condense with thiobarbituric acid (TBA) to form a red product which has a maximum absorption peak at 532 nm. The spectrophotometer was used to measure the relative absorption value to calculate the antioxidant value.
Reagents: Malondialdehyde (MDA) test kit (article number: A003-1, […], Nanjing Jiancheng), glacial acetic acid of analytically pure grade.
Reagent preparations: 1) Reagent I: Reagent 1 in the kit was taken out from the refrigerator and subjected to natural warming until a transparent liquid is obtained; 2) Reagent II: 170 mL of double-distilled water was added to each bottle and mixed; 3) Reagent III: A dry powder in the kit was dissolved in 60 mL of double-distilled water at 90 to 100° C. After the dry powder was dissolved totally, 30 mL of glacial acetic acid was added and kept in dark place; 4) Standard: 10 nmol/mL tetraethoxypropane.
Experimental procedures: 1) Blank tube: To 2 mL centrifuge tube were added anhydrous ethanol (70 μl), Reagent I (70 μl), Reagent II (0.8 mL) and Reagent III (0.8 mL) in sequence; 2) Standard tube: To 2 mL centrifuge tube were added standard (70 μl), Reagent I (70 μl), Reagent 11 (0.8 mL) and Reagent III (0.8 mL) in sequence; 3) Measuring tube: To 2 mL centrifuge tube were added the serum to be tested and physiological saline (the total volume of serum and physiological saline is 70 μl), Reagent I (70 μl), Reagent II (0.8 mL) and Reagent III (0.8 mL) in sequence; 4) Control tubes: all samples are set up with corresponding control tubes. To a 2 mL centrifuge tube were added the serum to be tested and physiological saline (the total volume of serum and physiological saline is 70 μl), Reagent I (70 μl), Reagent II (0.8 mL) and 50% glacial acetic acid (0.8 mL) in sequence.
After the above reagents were added, the mixture was mixed homogenously. Then the mixture was left in the water bath at 95° C. for 60 minutes. The sample was centrifuged at 4000 rpm for 10 minutes. The supernatant was taken for the measurement of the OD value.
Experimental data processing: the MDA content in serum was calculated as follows: MDA=(OD valuemeasured−OD valuecontrol)/OD valuestandard*concentration of the standard Inhibition rate %=100−(ODsample-average value−average value of Chow)/(average value of the solvent DMSO−average value of Chow)*100

[2] = In vitro free radical inhibition test (DPPH method); conditions: 8 μL of 20 mmol/L compound in 1 mL DPPH 0.059 mg/mL ethanol, 60 min dark, 517 nm; for inhibition rate %: DPPH; for Relative inhibition ability on free radicals: inhibition rate of AGI1067 on DPPH defined as 100
Excerpt: 1. In Vitro Free Radical Inhibition Test (DPPH Method)
The single electron of DPPH radical has a strong absorption at […], and its alcohol solution is purple. In the presence of a free radical scavenger, the absorption of DPPH radical is weakened or disappeared for the reason that the free radical scavenger is paired with the single electron of DPPH radical, and the degree of discoloration is quantitatively related to the number of electrons DPPH radical receives. Therefore, a spectrophotometer can be used to quickly and quantitatively analyze the free radical scavenging rate of the compound.
1) 1 mL solution of DPPH in absolute ethanol (concentration: 0.059 mg/mL) was taken; 2) 8 μL of the compound to be tested (20 mmol/L) were added; 3) after mixing well, the resultant was kept in dark at room temperature for 60 minutes, 4) the absorbance of the sample at 517 nm was measured.

[3] = test system: golden hamsters (60% high-fat food, STZ induced); assay: Golden hamster disease model, animal model induction group (16-week-old group): blood biochemical indexes and body weight; assay type: in vivo
Description: Animals and feed: 1) 8-week-old male golden hamsters with a body weight range of 100±5 g were selected; 2) 60% high-fat food; 3) 30% high-fat food; 4) general feed: NRC standard feed, containing 5% fat, total calories 4200 kcal/kg.
Animal model induction group (16-week-old group): 1) fed with 60% high-fat food for 2 weeks under standard environment; 2) STZ intraperitoneal injection twice every two days, 50 mg/kg each time; 3) After STZ induction, the golden hamsters were continuous fed for 1 week; 4) Blood was taken from the ocular venous plexus, and the initial body weight, blood glucose, total cholesterol, LDL-c, HDL-c and triglyceride were measured, and the golden hamsters were grouped in parallel according to animal biochemical indicators, 8 in each group; 5) Gavage of compounds: 0.1 mL of solution of compound (concentration: 6.8 mg/mL, DMSO solution) and 0.25 mL of whole milk were mixed evenly and administrated by gavage once a day for 2 weeks; 6) Blank control: 0.1 mL of DMSO and 0.25 mL of whole milk were mixed evenly and administrated by gavage once a day for 2 weeks; 7) Observation time: 14 days later, blood was taken from the ocular venous plexus, and the body weight, blood glucose, total cholesterol, LDL-c, HDL-c and triglyceride were measured.
Instruments: Shimadzu UV-1750 spectrophotometer, clinical determination kit (Changchun Huili Biotechnology Co., Ltd.)
Determination of blood glucose: glucose oxidase method, kit
Determination of total cholesterol (COD-PAP method), kit
Determination of low density lipoprotein cholesterol (direct method), kit
Determination of triglyceride (GP-PAP method)
Determination of high density lipoprotein (direct method), kit

[4] = after gavage once a day for 2 weeks
[5] = change rate, gavage once a day for 2 weeks

With `CCN(CC)CCOCCC(C)(C)c1cc(SC(C)(C)Sc2cc(C(C)(C)C)c(O)c(C(C)(C)C)c2)cc(C(C)(C)C)c1O` [Compound 17, 2,6-di-tert-butyl-4-((2-((3-(tert-butyl)-5-(4-(2-(diethylamino)ethoxy)-2-methylbutan-2-yl)-4-hydroxyphenyl)thio)propan-2-yl)thio)phenol] the inhibition rate % [1] was 74.0%, the “avarage value of OD” value [1] was 6.43 and the inhibition rate % [2] was 27.8%. The “Relative inhibition ability on free radicals” value [2] was 63.7.
For `CC(C)(Sc1cc(C(C)(C)C)c(O)c(C(C)(C)C)c1)Sc1cc(C(C)(C)C)c(O)c(C(C)(C)C)c1` [Compound 30, probucol, reference compound], the “change rate of blood glucose %” value ([3]; 0.1 mL of 6.8 mg/mL DMSO solution + 0.25 mL whole milk by gavage once a day for 2 weeks) was −1.5%, the “change rate of body weight after deduction of DMSO blank %” value ([3]; DMSO blank deducted) was −4.1% and the “average body weight after administration/g” value [3, 4] was 141.3 g. For the same compound, the “change of body weight/g” value [3, 4] was 7.6 g, the “change rate of body weight %” value [3, 4] was 5.7% and the HDL % [3, 5] was 63.3%. It also gave an LDL % [3, 5] of −12.2%, a total cholesterol % [3, 5] of 8.7% and a triglyceride % [3, 5] of −6.5%. For the same compound, the inhibition rate % [1] was 53.3% and the “avarage value of OD” value [1] was 7.23.
For `CC(C)(Sc1cc(C(C)(C)C)c(O)c(C(C)(C)C)c1)Sc1cc(C(C)(C)C)c(O)c(C(C)(C)CCOCCN2CCOCC2)c1` [Compound 18, 2,6-di-tert-butyl-4-((2-((3-(tert-butyl)-4-hydroxy-5-(2-methyl-4-(2-morpholinoethoxy)butan-2-yl)phenyl)thio)propan-2-yl)thio)phenol], the inhibition rate % [1] was 53.8%, the “avarage value of OD” value [1] was 7.21 and the inhibition rate % [2] was 23.5%. The “Relative inhibition ability on free radicals” value [2] was 53.8.
With `CC(C)(SCC(=O)O)Sc1cc(C(C)(C)C)c(O)c(C(C)(C)C)c1` [Compound 2, 2-((2-((3,5-di-tert-butyl-4-hydroxyphenyl)thio)propan-2-yl)thio)acetic acid] the inhibition rate % [1] was 73.5%, the “avarage value of OD” value [1] was 6.45 and the inhibition rate % [2] was 27.1%. The “Relative inhibition ability on free radicals” value [2] was 62.1.
For `CC(C)(Sc1cc(C(C)(C)C)c(O)c(C(C)(C)C)c1)Sc1cc(C(C)(C)C)c(OC(=O)CCC(=O)O)c(C(C)(C)C)c1` [Compound 31, 4-(2,6-di-tert-butyl-4-((2-((3,5-di-tert-butyl-4-hydroxyphenyl)thio)propan-2-yl)thio)phenoxy)-4-oxobutanoic acid, reference compound], the inhibition rate % [1] was 49.1%, the “avarage value of OD” value [1] was 7.39 and the inhibition rate % [2] was 43.6%. For the same compound, the “Relative inhibition ability on free radicals” value [2] was 100.0.
With `CC(C)(Sc1cc(C(C)(C)C)c(O)c(C(C)(C)C)c1)Sc1cc(C(C)(C)C)c(O)c(C(C)(C)CCOC(=O)[C@H](c2ccccc2Cl)N2CCc3sccc3C2)c1` [Compound 15, (S)-3-(3-(tert-butyl)-5-((2-((3,5-di-tert-butyl-4-hydroxyphenyl)thio)propan-2-yl)thio)-2-hydroxyphenyl)-3-methylbutyl 2-(2-chlorophenyl)-2-(6,7-dihydrothieno[3,2-c]pyridin-5(4H)-yl)acetate] the inhibition rate % [1] was 50.5%, the “avarage value of OD” value [1] was 7.34 and the inhibition rate % [2] was 19.1%. The “Relative inhibition ability on free radicals” value [2] was 43.8.
In the case of `CC(C)(Sc1cc(C(C)(C)C)c(O)c(C(C)(C)C)c1)Sc1cc(C(C)(C)C)c(O)c(C(C)(C)CCOC(=O)CN)c1` [Compound 19, 3-(3-(tert-butyl)-5-((2-((3,5-di-tert-butyl-4-hydroxyphenyl)thio)propan-2-yl)thio)-2-hydroxyphenyl)-3-methylbutyl glycinate], the inhibition rate % [1] is reported as 27.9%, the “avarage value of OD” value [1] is reported as 8.21 and the inhibition rate % [2] is reported as 32.1%. The “Relative inhibition ability on free radicals” value [2] was 42.6.
With `CC(C)(Sc1cc(C(C)(C)C)c(O)c(C(C)(C)C)c1)Sc1cc(C(C)(C)C)c2c(c1)C(C)(C)CCO2` [Compound 10, 2,6-di-tert-butyl-4-((2-((8-(tert-butyl)-4,4-dimethylchroman-6-yl)thio)propan-2-yl)thio)phenol] the inhibition rate % [1] was 47.6%, the “avarage value of OD” value [1] was 7.45 and the inhibition rate % [2] was 41.1%. For the same compound, the “Relative inhibition ability on free radicals” value [2] was 94.1.
With `COC(=O)CN(CCC(C)(C)c1cc(SC(C)(C)Sc2cc(C(C)(C)C)c(O)c(C(C)(C)C)c2)cc(C(C)(C)C)c1O)CC(=O)OC` [Compound 22, dimethyl 2,2′-((3-(3-(tert-butyl)-5-((2-((3,5-di-tert-butyl-4-hydroxyphenyl)thio)propan-2-yl)thio)-2-hydroxyphenyl)-3-methylbutyl)azanediyl)diacetate] the inhibition rate % [1] was 36.2%, the “avarage value of OD” value [1] was 7.89 and the inhibition rate % [2] was 42.6%. For the same compound, the “Relative inhibition ability on free radicals” value [2] was 97.6.
For `CC(N)C(=O)OCCC(C)(C)c1cc(SC(C)(C)Sc2cc(C(C)(C)C)c(O)c(C(C)(C)C)c2)cc(C(C)(C)C)c1O` (stereo not shown) [Compound 20, 3-(3-(tert-butyl)-5-((2-((3,5-di-tert-butyl-4-hydroxyphenyl)thio)propan-2-yl)thio)-2-hydroxyphenyl)-3-methylbutyl alaninate], the inhibition rate % [1] was 30.7%, the “avarage value of OD” value [1] was 8.10 and the inhibition rate % [2] was 26.3%. The “Relative inhibition ability on free radicals” value [2] was 38.9.
With `CC(C)(SCCC(=O)O)Sc1cc(C(C)(C)C)c(O)c(C(C)(C)C)c1` [Compound 4, 3-((2-((3,5-di-tert-butyl-4-hydroxyphenyl)thio)propan-2-yl)thio)propanoic acid] the inhibition rate % [1] was 84.4%, the “avarage value of OD” value [1] was 6.03 and the inhibition rate % [2] was 24.1%. The “Relative inhibition ability on free radicals” value [2] was 55.2.
For `CC(C)(Sc1cc(C(C)(C)C)c(O)c(C(C)(C)C)c1)Sc1cc(C(C)(C)C)c(O)c(C(C)(C)CCN)c1` [Compound 16, 2-(4-amino-2-methylbutan-2-yl)-6-(tert-butyl)-4-((2-((3,5-di-tert-butyl-4-hydroxyphenyl)thio)propan-2-yl)thio)phenol], the inhibition rate % [1] was 25.0%, the “avarage value of OD” value [1] was 8.32 and the inhibition rate % [2] was 91.8%. The “Relative inhibition ability on free radicals” value [2] was 210.4.
In the case of `CC(C)(C)C1=CC(=C2C=C(C(C)(C)C)C(=O)C(C(C)(C)C)=C2)C=C(C(C)(C)C)C1=O` [Compound 29, 3,3′,5,5′-tetra-tert-butyl-[1,1′-bi(cyclohexylidene)]-2,2′,5,5′-tetraene-4,4′-dione, reference compound], the inhibition rate % [1] is reported as 7.9%, the “avarage value of OD” value [1] is reported as 8.98 and the inhibition rate % [2] is reported as 8.8%. The “Relative inhibition ability on free radicals” value [2] was 20.1.
For `COC(=O)CSC(C)(C)Sc1cc(C(C)(C)C)c(O)c(C(C)(C)C)c1` [Compound 1, methyl 2-((2-((3,5-di-tert-butyl-4-hydroxyphenyl)thio)propan-2-yl)thio)acetate], the inhibition rate % [1] was 54.1% and the “avarage value of OD” value [1] was 7.20.
